Results taken from patent US8129419B2, “Microbicidal composition” (Rohm and Haas Company, priority 2007, dated 2012).
“And” between values parts separate entries of the source, which are not always exact repeats. Identical values can stand only once.

Tests used:
Format in all cases: cell-based
A. niger ATCC # 16404 = experiment: Synergy test: microtiter plate high resolution MIC assay, PDB medium, 25° C.; conditions: for MIC of the microbicide acting alone (Ca or Cb; QA/QB): A. niger, single component
Description: (§1) One measure of synergism is the industrially accepted method described by Kull, F. C.; Eisman, P. C.; Sylwestrowicz, H. D. and Mayer, R. L., in Applied Microbiology 9:538-541 (1961), using the ratio determined by the formula: Qa/QA+Qb/QB=Synergy Index(“SI”) wherein: • QA=concentration of compound A (first component) in ppm, acting alone, which produced an end point (MIC of Compound A). • Qa=concentration of compound A in ppm, in the mixture, which produced an end point. • QB=concentration of compound B (second component) in ppm, acting alone, which produced an end point (MIC of Compound B). • Qb=concentration of compound B in ppm, in the mixture, which produced an end point.
(§2) When the sum of Qa/QA and Qb/QB is greater than one, antagonism is indicated. […] The lower the SI, the greater the synergy shown by that particular mixture. The minimum inhibitory concentration (MIC) of a microbicide is the lowest concentration tested under a specific set of conditions that prevents the growth of added microorganisms.
(§3) Synergy tests were conducted using standard microtiter plate assays with media designed for optimal growth of the test microorganism. Minimal salt medium supplemented with 0.2% glucose and 0.1% yeast extract (M9GY medium) was used for testing bacteria; Potato Dextrose Broth (PDB medium) was used for testing yeast and mold. In this method, a wide range of combinations of microbicides was tested by conducting high resolution MIC assays in the presence of various concentrations of MBIT. High resolution MICs were determined by adding varying amounts of microbicide to one column of a microtitre plate and doing subsequent […] dilutions using an automated liquid handling system to obtain a series of endpoints ranging from 2 ppm to 10,000 ppm active ingredient.
(§4) The synergy of the combinations of the present invention was determined against several microorganisms, as described in the Tables below. The bacteria were used at a concentration of about 5×10^6 bacteria per mL and the yeast and mold at 5×10^5 fungi per mL. These microorganisms are representative of natural contaminants in many consumer and industrial applications. […] (yeast and mold) or 30° C. (bacteria).
(§5) In each test, Second Component (B) was MBIT and the First Component (A) was the other commercial microbicide.

C. albicans ATCC # 10231 = experiment: as above; conditions: for MIC of the microbicide acting alone (Ca or Cb; QA/QB): C. albicans, single component
Description: as §1, §2, §3, §4, §5

Ps. aeruginosa ATCC#9027 = experiment: Synergy test: microtiter plate high resolution MIC assay, M9GY medium, 30° C.; conditions: for MIC of the microbicide acting alone (Ca or Cb; QA/QB): Ps. aeruginosa, single component
Description: as §1, §2, §3, §4, §5

S. aureus ATCC#6538 = experiment: as above; conditions: for Cb: ppm AI of MBIT alone (MIC end-point, QB): Table 6; for MIC of the microbicide acting alone (Ca or Cb; QA/QB): S. aureus, single component
Description: as §1, §2, §3, §4, §5

[1] = contact time 48 hrs, MBIT alone (QB) or in mixture with ACQ C2 (Qb)
[2] = contact time 48 hrs, MBIT alone (QB) or in mixture with ACQ type D (Qb)
[3] = contact time 24 hrs, MBIT alone (QB) or in mixture with ACQ C2 (Qb)
[4] = contact time 24 hrs, MBIT alone (QB) or in mixture with ACQ type D (Qb)

Cn1sc2ccccc2c1=O [MBIT, N-methyl-1,2-benzisothiazolin-3-one]
Cb: ppm AI of MBIT alone (MIC end-point, QB) (A. niger ATCC # 16404; A. niger ATCC # 16404, contact time 3 days, Table 6): 37.5 ppm
Cb: ppm AI of MBIT alone (MIC end-point, QB) (A. niger ATCC # 16404; A. niger ATCC # 16404, contact time 3 days, Table 7): 37.5 ppm
Cb: ppm AI of MBIT alone (MIC end-point, QB) (A. niger ATCC # 16404; A. niger ATCC # 16404, contact time 3 days, Table 8): 37.5 ppm
Cb: ppm AI of MBIT alone (MIC end-point, QB) (A. niger ATCC # 16404; A. niger ATCC # 16404, contact time 7 days, Table 6): 37.5 ppm
Cb: ppm AI of MBIT alone (MIC end-point, QB) (A. niger ATCC # 16404; A. niger ATCC # 16404, contact time 7 days, Table 7): 75 ppm
Cb: ppm AI of MBIT alone (MIC end-point, QB) (A. niger ATCC # 16404; A. niger ATCC # 16404, contact time 7 days, Table 8): 75 ppm
MIC of the microbicide acting alone (Ca or Cb; QA/QB) (A. niger ATCC # 16404; contact time 3 days): 37.5 ppm AI
MIC of the microbicide acting alone (Ca or Cb; QA/QB) (A. niger ATCC # 16404; contact time 7 days): 37.5 ppm AI and 75 ppm AI
Cb: ppm AI of MBIT at MIC end point (A. niger ATCC # 16404; contact time 3 days, MBIT alone (QB) or in mixture with ACQ C2 (Qb)): 37.5 ppm
Cb: ppm AI of MBIT at MIC end point (A. niger ATCC # 16404; contact time 3 days, MBIT alone (QB) or in mixture with ACQ type D (Qb)): 37.5 ppm
Cb: ppm AI of MBIT at MIC end point (A. niger ATCC # 16404; contact time 7 days, MBIT alone (QB) or in mixture with ACQ C2 (Qb)): 37.5 ppm
Cb: ppm AI of MBIT at MIC end point (A. niger ATCC # 16404; contact time 7 days, MBIT alone (QB) or in mixture with ACQ type D (Qb)): 75 ppm
Cb: ppm AI of MBIT alone (MIC end-point, QB) (C. albicans ATCC # 10231; C. albicans ATCC # 10231, contact time 48 hrs, Table 6): 30 ppm
Cb: ppm AI of MBIT alone (MIC end-point, QB) (C. albicans ATCC # 10231; C. albicans ATCC # 10231, contact time 48 hrs, Table 7): 30 ppm
Cb: ppm AI of MBIT alone (MIC end-point, QB) (C. albicans ATCC # 10231; C. albicans ATCC # 10231, contact time 48 hrs, Table 8): 30 ppm
Cb: ppm AI of MBIT alone (MIC end-point, QB) (C. albicans ATCC # 10231; C. albicans ATCC # 10231, contact time 72 hrs, Table 6): 30 ppm
Cb: ppm AI of MBIT alone (MIC end-point, QB) (C. albicans ATCC # 10231; C. albicans ATCC # 10231, contact time 72 hrs, Table 7): 30 ppm
Cb: ppm AI of MBIT alone (MIC end-point, QB) (C. albicans ATCC # 10231; C. albicans ATCC # 10231, contact time 72 hrs, Table 8): 30 ppm
MIC of the microbicide acting alone (Ca or Cb; QA/QB) (C. albicans ATCC # 10231; contact time 48 hrs): 30 ppm AI
MIC of the microbicide acting alone (Ca or Cb; QA/QB) (C. albicans ATCC # 10231; contact time 72 hrs): 30 ppm AI and 60 ppm AI
Cb: ppm AI of MBIT at MIC end point (C. albicans ATCC # 10231; [1]): 60 ppm
Cb: ppm AI of MBIT at MIC end point (C. albicans ATCC # 10231; [2]): 30 ppm
Cb: ppm AI of MBIT at MIC end point (C. albicans ATCC # 10231; contact time 72 hrs, MBIT alone (QB) or in mixture with ACQ C2 (Qb)): 60 ppm
Cb: ppm AI of MBIT at MIC end point (C. albicans ATCC # 10231; contact time 72 hrs, MBIT alone (QB) or in mixture with ACQ type D (Qb)): 60 ppm
Cb: ppm AI of MBIT alone (MIC end-point, QB) (Ps. aeruginosa ATCC#9027; Ps. aeruginosa ATCC#9027, contact time 24 hrs, alone, Table 6): 125 ppm
MIC of the microbicide acting alone (Ca or Cb; QA/QB) (Ps. aeruginosa ATCC#9027; contact time 24 hrs): 125 ppm AI
MIC of the microbicide acting alone (Ca or Cb; QA/QB) (Ps. aeruginosa ATCC#9027; contact time 48 hrs): 125 ppm AI
Cb: ppm AI of MBIT at MIC end point (Ps. aeruginosa ATCC#9027; [3]): 75 ppm
Cb: ppm AI of MBIT at MIC end point (Ps. aeruginosa ATCC#9027; [4]): 75 ppm
Cb: ppm AI of MBIT at MIC end point (Ps. aeruginosa ATCC#9027; [1]): 125 ppm
Cb: ppm AI of MBIT at MIC end point (Ps. aeruginosa ATCC#9027; [2]): 125 ppm
Cb: ppm AI of MBIT alone (MIC end-point, QB) (S. aureus ATCC#6538; S. aureus ATCC#6538, contact time 24 hrs): 15 ppm
Cb: ppm AI of MBIT alone (MIC end-point, QB) (S. aureus ATCC#6538; S. aureus ATCC#6538, contact time 48 hrs): 15 ppm
MIC of the microbicide acting alone (Ca or Cb; QA/QB) (S. aureus ATCC#6538; contact time 24 hrs): 15 ppm AI
MIC of the microbicide acting alone (Ca or Cb; QA/QB) (S. aureus ATCC#6538; contact time 48 hrs): 15 ppm AI
MIC of the microbicide acting alone (Ca or Cb; QA/QB) (S. aureus ATCC#6538; second block of Table 4, contact time not given): 15 ppm AI
Cb: ppm AI of MBIT at MIC end point (S. aureus ATCC#6538; [3]): 15 ppm
Cb: ppm AI of MBIT at MIC end point (S. aureus ATCC#6538; [4]): 15 ppm
Cb: ppm AI of MBIT at MIC end point (S. aureus ATCC#6538; [1]): 15 ppm
Cb: ppm AI of MBIT at MIC end point (S. aureus ATCC#6538; [2]): 15 ppm

CCCCCCCCCCCC(=O)N[C@@H](CCCN=C(N)N)C(=O)OCC.Cl [CYTO GUARD LA, ethyl lauroyl arginate hydrochloride]
MIC of the microbicide acting alone (Ca or Cb; QA/QB) (A. niger ATCC # 16404; contact time 3 days): 110 ppm AI
MIC of the microbicide acting alone (Ca or Cb; QA/QB) (A. niger ATCC # 16404; contact time 7 days): 110 ppm AI
MIC of the microbicide acting alone (Ca or Cb; QA/QB) (C. albicans ATCC # 10231; contact time 48 hrs): 87.5 ppm AI
MIC of the microbicide acting alone (Ca or Cb; QA/QB) (C. albicans ATCC # 10231; contact time 72 hrs): 87.5 ppm AI
MIC of the microbicide acting alone (Ca or Cb; QA/QB) (Ps. aeruginosa ATCC#9027; contact time 48 hrs): 42.5 ppm AI
MIC of the microbicide acting alone (Ca or Cb; QA/QB) (S. aureus ATCC#6538; contact time 24 hrs): 2.125 ppm AI
MIC of the microbicide acting alone (Ca or Cb; QA/QB) (S. aureus ATCC#6538; contact time 48 hrs): 2.625 ppm AI

cocamidopropyl-N-2-hydroxyethylcarbamoyl methyl dimethyl ammonium chloride [MONTALINE C40]
MIC of the microbicide acting alone (Ca or Cb; QA/QB) (A. niger ATCC # 16404; contact time 3 days): 650 ppm AI
MIC of the microbicide acting alone (Ca or Cb; QA/QB) (A. niger ATCC # 16404; contact time 7 days): 650 ppm AI
MIC of the microbicide acting alone (Ca or Cb; QA/QB) (C. albicans ATCC # 10231; contact time 48 hrs): 525 ppm AI
MIC of the microbicide acting alone (Ca or Cb; QA/QB) (C. albicans ATCC # 10231; contact time 72 hrs): 1100 ppm AI
MIC of the microbicide acting alone (Ca or Cb; QA/QB) (Ps. aeruginosa ATCC#9027; contact time 24 hrs): 300 ppm AI
MIC of the microbicide acting alone (Ca or Cb; QA/QB) (Ps. aeruginosa ATCC#9027; contact time 48 hrs): 300 ppm AI
MIC of the microbicide acting alone (Ca or Cb; QA/QB) (S. aureus ATCC#6538; contact time 24 hrs): 5 ppm AI
MIC of the microbicide acting alone (Ca or Cb; QA/QB) (S. aureus ATCC#6538; contact time 48 hrs): 5 ppm AI
